Experimental data: ChEMBL document CHEMBL1201862, “PubChem BioAssay data set” (2004)
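All cell lines were grown in 96-well plates and treated with compound for 48 hours. The concentration for 50% growth inhibition is given as GI50.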 Active and inactive are the calls of the source. No stated cut-off is given here; in the data, active = GI50 up to about 1.1 µM and inactive = higher.

Columns and labels:
Assay in all cases: NCI anticancer screen, dose series, 48 h
786-0 = test system: 786-0
KM-20L2 = test system: KM-20L2
K562 = test system: K562
OVCAR-4 = test system: OVCAR-4
SK-MEL-5 = test system: SK-MEL-5
SK-OV-3 = test system: SK-OV-3
HCT-15 = test system: HCT-15
HT-29 = test system: HT-29
U-251 = test system: U-251
MOLT-4 = test system: MOLT-4
SF-539 = test system: SF-539
ACHN = test system: ACHN
SK-MEL-28 = test system: SK-MEL-28
HCT-116 = test system: HCT-116
A549 = test system: A549
HOP-62 = test system: HOP-62
HOP-92 = test system: HOP-92
MCF7 = test system: MCF7
CAKI-1 = test system: CAKI-1
SR = test system: SR

SMILES	GI50 (786-0)	GI50 (KM-20L2)	GI50 (K562)	GI50 (OVCAR-4)	GI50 (SK-MEL-5)	GI50 (SK-OV-3)	GI50 (HCT-15) [µM]	GI50 (HT-29)	GI50 (U-251)	GI50 (MOLT-4)	GI50 (SF-539)	GI50 (ACHN)	GI50 (SK-MEL-28)	GI50 (HCT-116)	GI50 (A549)	GI50 (HOP-62)	GI50 (HOP-92)	GI50 (MCF7)	GI50 (CAKI-1)	GI50 (SR)
O=C(CSc1nnc(Cc2ccccc2)o1)Nc1ccccc1	> 100 µM (inactive)	> 100 µM (inactive)	> 100 µM (inactive)	> 100 µM (inactive)	> 100 µM (inactive)	> 100 µM (inactive)	> 100	> 100 µM (inactive)	> 100 µM (inactive)	> 100 µM (inactive)	> 100 µM (inactive)	> 100 µM (inactive)	> 100 µM (inactive)	> 100 µM (inactive)	> 100 µM (inactive)	> 100 µM (inactive)	–	–	–	–
CCN(Cc1cc(Cl)cc(C)c1O)Cc1c(O)ccc2ccccc12	16.8 µM (inactive)	–	19.1 µM (inactive)	17.1 µM (inactive)	14.9 µM (inactive)	15.2 µM (inactive)	14.6	12.9 µM (inactive)	17.1 µM (inactive)	5.36 µM (inactive)	13.3 µM (inactive)	17.3 µM (inactive)	17.9 µM (inactive)	16.7 µM (inactive)	18.8 µM (inactive)	12.5 µM (inactive)	11.2 µM (inactive)	19.9 µM (inactive)	15.3 µM (inactive)	16.2 µM (inactive)
CC1=NN(c2ccccc2)C(=O)/C1=C\c1ccc([N+](=O)[O-])cc1	29.1 µM (inactive)	22.8 µM (inactive)	28.6 µM (inactive)	19.3 µM (inactive)	22.4 µM (inactive)	24.1 µM (inactive)	29.6	28.3 µM (inactive)	41.3 µM (inactive)	21.5 µM (inactive)	22.4 µM (inactive)	31.5 µM (inactive)	36.6 µM (inactive)	–	35.4 µM (inactive)	–	–	–	27.3 µM (inactive)	–
O=C1c2ccccc2C(=O)C12CCc1ccccc12	> 100 µM (inactive)	> 100 µM (inactive)	83.4 µM (inactive)	> 100 µM (inactive)	–	> 100 µM (inactive)	> 100	> 100 µM (inactive)	> 100 µM (inactive)	4.18 µM (inactive)	–	> 100 µM (inactive)	> 100 µM (inactive)	–	> 100 µM (inactive)	> 100 µM (inactive)	> 100 µM (inactive)	–	> 100 µM (inactive)	–
C=C1CCOC2(C(O)C(C)(O)CO)NC(=O)C1(O)NC2=O (stereo unspecified)	> 100 µM (inactive)	–	> 100 µM (inactive)	> 100 µM (inactive)	> 100 µM (inactive)	> 100 µM (inactive)	> 100	> 100 µM (inactive)	> 100 µM (inactive)	> 100 µM (inactive)	> 100 µM (inactive)	> 100 µM (inactive)	> 100 µM (inactive)	> 100 µM (inactive)	> 100 µM (inactive)	> 100 µM (inactive)	> 100 µM (inactive)	> 100 µM (inactive)	> 100 µM (inactive)	> 100 µM (inactive)
CC(=O)Oc1ccc2c(c1)[nH]c1c3ccc(OC(C)=O)cc3oc(=O)c21	48 µM (inactive)	–	26.5 µM (inactive)	42.4 µM (inactive)	15.3 µM (inactive)	26 µM (inactive)	37	34.2 µM (inactive)	30.5 µM (inactive)	14.2 µM (inactive)	29.9 µM (inactive)	27 µM (inactive)	38 µM (inactive)	23.3 µM (inactive)	56.9 µM (inactive)	29.3 µM (inactive)	61.1 µM (inactive)	24.9 µM (inactive)	52.4 µM (inactive)	22.8 µM (inactive)
COc1ccc(/C=C2\CN(C)CC3C2=NC(=S)NC3c2ccc(OC)cc2)cc1 (stereo unspecified)	3.66 µM (inactive)	–	3.95 µM (inactive)	4.92 µM (inactive)	4.24 µM (inactive)	5.66 µM (inactive)	3.46	3.51 µM (inactive)	8.55 µM (inactive)	2.9 µM (inactive)	7.11 µM (inactive)	5.73 µM (inactive)	> 66.7 µM (inactive)	3.43 µM (inactive)	4 µM (inactive)	6.46 µM (inactive)	3.21 µM (inactive)	2.82 µM (inactive)	6.64 µM (inactive)	0.865 µM (active)
COC(=O)[C@]1(NC(=O)c2ccccc2)C[C@H]1C=O	> 100 µM (inactive)	–	> 100 µM (inactive)	> 100 µM (inactive)	> 100 µM (inactive)	93.8 µM (inactive)	> 90.6	> 100 µM (inactive)	> 100 µM (inactive)	> 64.7 µM (inactive)	> 100 µM (inactive)	> 100 µM (inactive)	> 100 µM (inactive)	> 100 µM (inactive)	> 100 µM (inactive)	> 100 µM (inactive)	> 100 µM (inactive)	> 100 µM (inactive)	> 100 µM (inactive)	28.2 µM (inactive)
